Results on 13 compounds are retold here after patent US8993527B2, “Methods, compositions, and formulations for preventing or reducing adverse effects in a patient” (Pericor Therapeutics, Inc., priority 2005, dated 2015).

Each structure is given as a SMILES string.

For data set [1], the system named is longitudinal muscle from the guinea pig ileum. The experiment in a line: Inhibition of stimulated contraction in isolated ileum. The conditions noted are these: electrically stimulated guinea pig ileum muscle. From the text: These are detailed in Table II.
Data set [2] in a line: Oral bioavailability and half-life in fasted adult beagles. It counts as in vivo, dog. On the procedure:
Heparinized blood and urine were collected at selected intervals over 24 hours. Each sample was chilled, centrifuged at 4° C. and frozen prior to HPLC analysis.

Data set [3] addresses T1, NBTI-specific adenosine transport site (UniProt O54698).
T1 sequence (O54698 1-457): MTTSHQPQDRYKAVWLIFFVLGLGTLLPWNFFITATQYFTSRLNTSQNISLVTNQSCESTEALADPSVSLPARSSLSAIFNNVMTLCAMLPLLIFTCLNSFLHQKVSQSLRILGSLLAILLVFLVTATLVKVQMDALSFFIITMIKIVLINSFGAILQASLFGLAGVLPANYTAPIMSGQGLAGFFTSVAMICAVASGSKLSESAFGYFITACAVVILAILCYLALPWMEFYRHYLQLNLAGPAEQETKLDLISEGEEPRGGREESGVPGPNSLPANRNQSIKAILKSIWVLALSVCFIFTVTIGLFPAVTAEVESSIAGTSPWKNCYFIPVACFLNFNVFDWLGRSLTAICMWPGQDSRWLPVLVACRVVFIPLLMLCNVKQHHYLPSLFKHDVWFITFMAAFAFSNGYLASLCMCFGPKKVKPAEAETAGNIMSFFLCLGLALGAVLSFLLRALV
In words: [3H]-NBTI binding assay. Conditions: read-out: ED50 (50% displacement of bound [3H]-NBTI); 0.5 mg neuronal membrane protein, 0.5 nM [3H]-NBTI, 30 minutes. How it is done: Increasing concentrations of the test compounds were incubated for 30 minutes with 0.5 mg neuronal membrane protein together with 0.5 nM [^3 H]-NBTI in a Tris buffer (pH 7.4) at room temperature. The assays were quenched and membranes collected by rapid filtration. Filters were then solubilized and radioactivity determined by scintillation counting.

The subject of another data set is ischemic rat hearts. In words: Rat heart ischemia model: tissue adenosine levels. It counts as in vivo. Conditions: intraperitoneal; hearts excised after 60 minutes, incubated 60 minutes at 37° C. How it is done: Male rats were injected intraperitonealy with either the AICA riboside analog, AICA riboside or saline, as a control. After 60 minutes, the hearts were excised and incubated at 37° C. for a further 60 minutes. Tissue extracts were prepared and analyzed for adenosine by high performance liquid chromatography (HPLC).

Data set [4] has as its system patients undergoing coronary artery bypass surgery. The experiment in a line: Aspirin within 48 hours of revascularization: prospective study of CABG patients. It counts as in vivo. From the text: A prospective, longitudinal study enrolled 5,436 patients. Eligible patients included those with medically-refractory coronary artery disease and scheduled for coronary artery bypass surgery at 70 medical institutions among 17 countries in North and South America, Europe, the Middle East and Asia. At each institution, 100 patients were to be prospectively enrolled according to a systematic sampling scheme that allowed a random sampling of patients at each institution among all patients undergoing surgery at that institution.
Of the 5,436 patients enrolled, 5,065 patients completed the study and were included in the final analysis. Of the 371 patients excluded, 32 were excluded due to patient withdrawal, 2 due to death prior to surgery, 97 due to cancellation or rescheduling of surgery, 132 patients due to change in procedure, 11 due to inadvertent enrollment in another study, 86 due to incomplete data and 11 due to incomplete blood sampling, shipping or storage.
Aspirin was administered in doses of 160 mg to 650 mg to 3,001 patients within 48 hours of revascularization. All potential side-effects associated with aspirin use were recorded daily by blinded investigators. Independent investigators coded all medications received-including pro- and anti-thrombotic and pro- and anti-coagulant medications, and blood products—by day throughout hospitalization, as well as at admission and at discharge, or until death.
For each enrolled patient, approximately 7,500 fields of data were collected throughout the patient's index hospitalization, from admission until discharge, by independent investigators; treated physicians were blinded to all research data. Data included demographic, historical, clinical, laboratory, eloectrocardiographic, specialized testing, resource utilization, and adverse outcomes. Following last patient enrollment, all data fields for each patient were queried centrally for completeness and accuracy, with all changes documented prior to database closure.
All outcomes were prespecified, defined by protocol, and discerned by investigators blinded to treatment group. Fatal and non-fatal outcomes were classified as cardiac (myocardial infarction, congestive heart failure and cardiac death), cerebral (stroke, encephalopathy and cerebral death), renal (dysfunction, failure and renal death), gastrointestinal (ischemia, infarction and GI death), or other (such as infectious, pulmonary). The diagnosis of myocardial infarction required either: the development of new Q waves (as defined by Minnesota Code 1-1-1I or 1I-2-7); or new persistent S T-segment or T-wave changes (Minnesota Code 4-1, 4-2, 5-1 or 5-2) associated with an elevation of CK-MB isoenzyme values; or autopsy evidence of acute myocardial infarction. The diagnosis of heart failure required either: the use of a ventricular assist device; or the use of continuous inotropic support for at least 24 hours; or autopsy evidence of heart failure. Cerebral outcomes were classified as: clinically diagnosed stroke or encephalopathy; or CT, MRI or autopsy evidence of a focal or global defect. Renal dysfunction was defined as: a serum creatinine ≧177 μmol/L accompanied by a ≧62 μmol/L rise over baseline; and renal failure was defined as dysfunction requiring dialysis, or autopsy evidence of renal failure. Gastrointestinal ischemia was defined as abdominal pain diagnosed as intestinal ischemia, or detected at exploration; infarction required bowel resection, or autopsy evidence of intestinal infarction.
The risk of death for aspirin taking versus control populations were compared using the Chi-Square test. Individual ischemic outcomes involving the heart, brain, kidney and gastrointestinal tract, and combined ischemic outcomes were compared using Fisher's Exact Test or the Chi-Square test as appropriate. Odds ratios and the 95% confidence intervals are presented with associated P values. […]

Data set [5] deals with T2, purified pig heart adenosine kinase (Sus scrofa, UniProt A0A5G2R0F5).
T2 construct: 0.1 μg of purified pig heart adenosine kinase; from tissue; host or cells: pig heart
The experiment in a line: Adenosine kinase activity. Conditions: 0.5 μM [U14C] adenosine, 1 mM ATP, 20 minutes at 37° C. It is filed as biochemical. How it is done: Inhibition of enzyme activity was determined using a 0.1 ml assay mixture containing 50 mM Tris-maleate, pH 7.0, 0.1% (w/v) BSA, 1 mM ATP, 1 mM MgCl2, 0.5 μM [U^14 C] adenosine (500 mCi/mmol) and 0.1 μg of purified pig heart adenosine kinase. Different concentrations of test compound were incubated in the assay mixture for 20 minutes at 37° C. From each reaction mixture, 20 μl portions were removed and spotted on 2^2 pieces of Whatman DE81 filter paper. The papers were then washed to remove [^14 C] adenosine in 1 mM ammonium formate followed by deionized water and finally 95% ethanol. The papers were dried, and [^14C] AMP measured by scintillation counting. Activities were determined from the amount of [^14C] AMP formed.

The test system of data set [6] is platelet aggregation in human whole blood. In words: Inhibition of platelet aggregation in human whole blood. It counts as cell-based. The conditions noted are these: Homo sapiens, Platelet, 10 min, 10 minutes at 37° C., 10 µM adenosine added, ADP (6-25 μM). On the procedure:
Whole blood was drawn from healthy donors and collected in 0.1 vol. of sodium citrate to prevent coagulation. Platelet aggregation was measured by the impedance technique using a Whole Blood Aggregometer. The test compounds were incubated in whole blood for 10 minutes at 37° C. and 10 µM adenosine was added 5 minutes before eliciting aggregation. Aggregation was induced by addition of ADP (6-25 μM) at the minimum concentration inducing full aggregation in untreated controls.

The subject of data set [7] is coronary endothelial cells. The experiment in a line: Inhibition of adenosine utilization in cell culture. Conditions: Endothelial cell, 1 μM [3H] adenosine, 15 minutes. It counts as cell-based. How it is done: In this assay, endothelial cells were incubated with 5 μM or 50 μM of the test compound together with 1 μM [^3H] adenosine for 15 minutes. Inhibition of adenosine utilization was determined by measuring the concentration of extracellular adenosine by scintillation counting following separation by thin layer chromatography (TLC).

T2 sequence (A0A5G2R0F5 1-362): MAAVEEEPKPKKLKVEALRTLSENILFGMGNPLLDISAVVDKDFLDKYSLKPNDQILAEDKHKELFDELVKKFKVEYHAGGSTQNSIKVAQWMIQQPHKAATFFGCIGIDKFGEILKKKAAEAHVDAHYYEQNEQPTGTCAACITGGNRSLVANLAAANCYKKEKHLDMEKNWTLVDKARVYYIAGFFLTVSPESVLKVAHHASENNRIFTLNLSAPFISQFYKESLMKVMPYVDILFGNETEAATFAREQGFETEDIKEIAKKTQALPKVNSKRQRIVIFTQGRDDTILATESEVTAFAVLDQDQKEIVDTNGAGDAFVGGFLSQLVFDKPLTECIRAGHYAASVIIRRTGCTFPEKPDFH

For orientation: IC50 means the concentration that gives 50% inhibition. On to `NC[C@H]1O[C@@H](n2cnc(C(N)=O)c2N)[C@H](O)[C@@H]1O` [Compound No. 21 (1-227), 5′-Amino-5′-deoxy-AICA-riboside], for which the half-inhibitory concentration (IC50) in data set [1] amounted to 800 µM. Further, in [2], the “Half Life” value is 1.30 h. In addition, the “Absolute Oral Bioavailability %” value in [2] (10 mg/kg IV bolus and 20 mg/kg via stomach tube) is reported as 71 ± 13 (n = 2) %.

For orientation: melting point means the temperature, or range, at which the solid turns liquid. In the case of `Nc1c(C(=O)Nc2ccc(Br)cc2)ncn1C1OC(CO)C(O)C1O` [Compound No. 55 (1-484), 5-Amino-1-β-D-ribofuranosylimidazole-4-N-(4-bromophenyl)carboxamide], the melting point was 214 to 216 °C (dec.). Further, the EC50 in data set [3] amounted to 60 µM.

Regarding `Nc1c(C(=O)NC2CC2)ncn1[C@@H]1O[C@H](CO)[C@@H](O)[C@H]1O` [Compound No. 12 (1-232), 5-Amino-1-beta-D-ribofuranosylimidazole-4-N-(cyclopropyl)carboxamide], inhibition in [1] was half-maximal at 400 µM (IC50). The “Tissue Adenosine Levels (% Increase vs. Saline)” value in the data set on ischemic rat hearts came out at 29%.

In the case of `CC(=O)OC[C@H]1O[C@@H](c2nc(C(N)=O)c(N)[nH]2)[C@H](OC(C)=O)[C@@H]1OC(C)=O` [Compound No. 2 (1-111), 5-Amino-(2,3,5-tri-O-acetyl-beta-D-ribofuranosyl)imidazole-4-carboxamide], the melting point was 128 to 129 °C.

On to `CC(=O)CC(c1ccccc1)c1c(O)c2ccccc2oc1=O` (centres unmarked) [Warfarin/coumadin], for which, in data set [4] (Warfarin/coumadin over the week prior to revascularization), the “Odds Ratio for mortality (multivariate)” value is 2.00.

Take `CC(=O)Oc1ccccc1C(=O)O` [Aspirin]: the “Odds Ratio for mortality (multivariate)” value came out at 1.46 in [4] (Aspirin use (admission)), 0.77 in data set [4] (Aspirin use (prior to surgery)), 0.27 in data set [4] (Aspirin use following revascularization) and 1.04 in data set [4] (Discontinuation of aspirin use). This compound also showed a Length of hospitalization in [4] (aspirin group, 11.32±9.44 without) of 9.57±7.14. The “patients who died within 12 hours of surgery” value in data set [4] (aspirin group, 25 patients in the control group) was “none”. Besides, the “patients who died within 48 hours of surgery” value in data set [4] (aspirin group, 42 patients in the control group) is “one”. Further, the “risk of dying during hospitalization” value in data set [4] (aspirin within 48 hours of revascularization, 5.9% without) was determined as 1.4%. The “non-fatal ischemic complications (heart, brain, kidney or gastrointestinal tract)” value in data set [4] (aspirin within 48 hours of revascularization, 24.5% without) stood at 13.6%. Besides, the reduction in mortality in [4] (first use of aspirin 48 hours after surgery, not significant (P=0.534)) is 15%.

Compound `NC(=O)c1nc(S)n([C@@H]2O[C@H](CO)[C@@H](O)[C@H]2O)c1N` [27 (1-395), 5-amino-2-thio-1-β-D-ribofuranosyl imidazole-4-carboxamide] had a melting point of 205 to 208 °C. For the same compound, the IC50 in [1] (Cavia porcellus) is 500 µM. In [3], the EC50 was 344 µM. The compound further registered a 50% inhibitory concentration (IC50) in data set [5] of 8 µM. The IC50 in data set [6] came to 950 µM.

The compound `Nc1c(C(=O)Nc2ccccc2Cl)ncn1C1OC(CO)C(O)C1O` [Compound No. 64 (1-519), 5-Amino-1-β-D-ribofuranosylimidazole-4-N-(2-chlorophenyl)carboxamide] yielded a melting point of 131 to 135 °C. The EC50 in data set [3] came to 48 µM.

Consider `C[C@H]1O[C@@H](n2c(S)nc(C(N)=O)c2N)[C@H](O)[C@@H]1O` [Compound No. 67 (1-535), 5-Amino-2-thio-1-βD-(5 deoxyribofuranosyl)imidazole-4-carboxamide], for which the half-inhibitory concentration (IC50) in data set [5] was found to be 23 µM. That is a double-digit micromolar value.

The compound `NC[C@H]1O[C@@H](n2c(S)nc(C(N)=O)c2N)[C@H](O)[C@@H]1O` [Compound No. 70 (1-551), 5-Amino-2-thio-1-(5-amino-5-deoxy-β-D-ribofuranosyl)imidazole-4-carboxamide] returned an IC50 in [5] of 17 µM.

By inhibition is commonly meant the relative decrease from the control value, in per cent. A low value points to a weak effect. Turning to `Nc1c(C(=O)NCc2ccc([N+](=O)[O-])cc2)ncn1C1OC(CCl)C(O)C1O` (centres unmarked) [51 (1-466)], the melting point is 174 to 176 °C. Also, the inhibition at 5 µM in [7] (5 μM) turned out to be 27 ± 2%. Further, the inhibition at 50 µM in data set [7] (50 μM) turned out to be 65 ± 2%. Also, half-maximal inhibition in [6] (IC50) required 193 µM.

In turn, `Nc1c(C(=O)Nc2ccc(I)cc2)ncn1C1OC(CO)C(O)C1O` [Compound No. 57 (1-488), 5-Amino-1-β-D-ribofuranosyl-imidazole-4-N-(4-iodophenyl) carboxamide] displayed a melting point of 227 to 229 °C. Also, the EC50 in data set [3] came out at 80 µM.

With `Nc1c(C(=O)NN2CCCCC2)ncn1[C@@H]1O[C@H](CO)[C@@H](O)[C@H]1O` [Compound No. 36 (1-207), 5-amino-4-(1-piperidinocarbamoyl)-1-β-D-ribofuranosylimidazole], the “Tissue Adenosine Levels (% Increase vs. Saline)” value in the data set on ischemic rat hearts was 34%.
